Measurements as given in patent US10098974B2, “Catalytic radiofluorination” (priority 2004, dated 2018).
Read-outs that look alike come from different tables or passages of the source.

Tests used:
[1] = test system: MCF-7; conditions: MCF-7, period of 240 minutes
[2] = test system: C-6BAG glioma; conditions: period of 240 minutes
[3] = test system: C6 glioma cell line; conditions: from maximum accumulation at 30 minutes
[4] = test system: CV-1 normal cell line
[5] = rat, microPET
Protocol: (§1) Rats (250-300 grams) or rabbits (3-4 Kg) were anesthetized and placed ventrally to the imaging position and 0.4-1 mCi of the FTPP was injected into the vain. Three-dimensional dynamic data were acquired in list mode for one hour starting from the injection of the radiolabeled ligand.
(§2) PET imaging was conducted with a microPET, P4 system (Concorde Microsystems Inc, Knoxville, Tenn.). The length of the field of view is 8 cm and the diameter is 22 cm allowing entire upper body imaging of the rat or rabbit during a single acquisition. The imaging parameters of this system are in-plane and axial resolution of 1.2 mm full width of photopeak measured at half maximal count.

[6] = rabbit
Protocol: as §1, §2
The rabbit was anesthetized, placed in the microPET camera (body marks in the camera positioning were made) and sequential images were obtained for ten minutes following the administration of 3 mCi of N-13-ammonia (FIG. 10). One hour later, FTPP was injected followed by 60 minute sequential imaging of the rabbit (FIG. 11). Image corrections for the remaining N-13-ammonia activity were made with an appropriate program. One day later, the same rabbit underwent an LAD occlusion protocol, positioned in the same camera field of view and the above dual agent imaging sequence was repeated.

[7] = Biodistribution of FTTP in rats after intravenous administration
[8] = 5 min post administration (Table 1)
[9] = 30 min post administration (Table 1)
[10] = 60 min post administration (Table 1)

For “[I-125]-p-iodophenyltriphenylphosponium nitrate [TPPI]”, the cell retention [1] was “High retention”, the cell retention [2] was “High retention” and the cell retention [3] was “partial washout”. The cell uptake [4] was “no significant uptake”.

In the case of `O=[N+]([O-])[O-].[18F]c1ccc([P+](c2ccccc2)(c2ccccc2)c2ccccc2)cc1` [FTTP, [F-18]-(4-fluorophenyl)triphenylphosphonium nitrate], the “time after injection at which heart activity reaches a plateau” value [5] is reported as 1 min, the myocardial retention ([6]; late images at 60 min) is reported as “high myocardial retention” and the “time after injection at which heart activity reaches a plateau” value ([6]; microPET) is reported as 1 min. For the same molecule, the Heart/Blood ratio [7, 8] was 11 % ID/g, the Heart/Liver ratio [7, 8] was 5 % ID/g and the Heart/Lung ratio [7, 8] was 2 % ID/g. It also gave a Heart/Blood ratio [7, 9] of 75 % ID/g, a Heart/Liver ratio [7, 9] of 8 % ID/g and a Heart/Lung ratio [7, 9] of 5 % ID/g. The Heart/Blood ratio [7, 10] was 70 % ID/g, the Heart/Liver ratio [7, 10] was 8 % ID/g and the Heart/Lung ratio [7, 10] was 4 % ID/g. For the same molecule, the “Bone accumulation (indication of defluorination)” value ([7]; iv, 5 min) was 0.31 ID/g, the Heart-to-lung ratio ([7]; iv, 5 min) was 2.4 and the Lung activity ([7]; iv, 5 min) was 0.69 ID/g. For the same molecule, the “accumulation in heart relative to blood” value ([7]; iv, 5 min) was 11 fold, the “accumulation in heart relative to liver” value ([7]; iv, 5 min) was 5 fold and the “accumulation in the heart” value ([7]; iv, 5 min) was 1.64 ID/g. For the same molecule, the liver uptake ([7]; iv, 5 min) was 0.18 ID/g, the Heart-to-lung ratio ([7]; iv, 30 min) was 5.0 and the Lung activity ([7]; iv, 30 min) was 0.30 ID/g. For the same molecule, the liver uptake ([7]; iv, 30 min) was 0.17 ID/g, the “uptake of radioactivity in the heart” value ([7]; iv, 30 min) was 1.5 ID/g and the “Bone accumulation (indication of defluorination)” value ([7]; iv, 60 min) was 0.39 ID/g. It also gave a Heart-to-lung ratio ([7]; iv, 60 min) of 3.2, a Lung activity ([7]; iv, 60 min) of 0.38 ID/g and a liver uptake ([7]; iv, 60 min) of 0.17 ID/g.
